Laboratory results taken from PubChem BioAssay (NCI).
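Growth conditions: 96-well plates. Treatment: test compound, 48 hours, 5 concentrations. Analysis: linear interpolation between bracketing concentrations; unreached endpoints set to highest concentration. TGI: total growth inhibition.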

Tests used:
Experiment in all cases: NCI tumour cell line growth inhibition, 48 h
[1] = system: MDA-MB-435
[2] = system: KM12 colon
[3] = system: TK-10 renal
[4] = system: RXF 393 renal
[5] = system: UACC-257 melanoma
[6] = system: OVCAR-4 ovarian
[7] = system: CAKI-1 renal
[8] = system: DU-145 prostate

Row | Compound | TGI [1] [µM] | TGI [2] [µM] | TGI [3] [µM] | TGI [4] [µM] | TGI [5] [µM] | TGI [6] [µM] | TGI [7] [µM] | TGI [8] [µM]
1 | c1ccc(-c2sc(-c3cccs3)cc2Cc2cccs2)cc1 | > 10 | > 10 | > 10 | > 10 | > 10 | > 10 | > 10 | > 10
2 | c1ccc(C2=Nc3nc4ccccc4n3C(c3ccccc3)C2)cc1 (stereo not given) | > 100 | > 100 | > 100 | > 100 | > 100 | > 100 | > 100 | 
3 | CN1C(=S)C(c2ccccc2)Sc2ccccc21 (stereo not given) | > 100 | > 100 | > 100 | > 100 | > 100 | > 100 | > 100 | > 100
4 | CC(=O)N1CCc2c([nH]c3ccc(Br)cc23)C1c1ccccc1 (stereo not given) | > 10 | > 10 | > 10 | > 10 | > 10 | > 10 | > 10 | > 10
5 | Cc1cc(-c2[nH]c(C(=O)O)cc2I)on1 | > 100 | > 100 | > 100 | > 100 | > 100 | > 100 | > 100 | > 100
6 | COC(=O)C1=C(C)NC2(O)C=CC(=O)C3C(=O)N(c4ccccc4)C(=O)C132 (stereo not given) | > 100 | > 100 | > 100 | > 100 | > 100 | > 100 | > 100 | > 100
7 | Cc1c(C(=O)N2CCN(c3ccc([N+](=O)[O-])cc3)CC2)[n+](=O)c2cc(Cl)c(Cl)cc2n1[O-] | > 100 | > 100 | 39.3 | 27.5 | > 100 | 29.5 | 64.3 | 43.9
8 | Cn1c(=O)c2c(nc3n(Cc4ccccc4)c(=O)c(NCCBr)cn23)n(C)c1=O | > 100 | > 100 | 44.5 | 35 | > 100 | 49.2 | 37.6 | > 100
9 | CCCCc1c(C(=O)OC(C)(C)C)cc(C#Cc2cc(C(=O)OC(C)(C)C)c(CCCC)c(C(=O)OC(C)(C)C)c2)cc1C(=O)OC(C)(C)C | > 100 | > 100 | > 100 |  | > 100 | > 100 | > 100 | > 100
10 | CCC1C(c2cccc(OC)c2O)c2cc3c(cc2OC1N1CCCC1)OCO3 (stereo not given) | 15.9 | 50.8 | 82.1 |  | 71.3 |  |  | 
11 | COc1ccc2cc1Oc1ccc(cc1)C(Sc1ccccc1)CCOC(=O)CC2 (stereo not given) | > 100 | > 100 | > 100 | > 100 | > 100 | > 100 | > 100 | > 100
12 | O=C(/C=C/c1ccsc1)c1ccco1 | > 50.3 | > 22.2 | 50.5 | 27 | 38.6 | > 37.2 |  | 26.4
13 | C=CC1ON(Cc2ccccc2)CCc2cc(OC)c(OC)cc21 (stereo not given) | 84.9 | > 100 | > 100 |  | > 100 |  | > 100 | > 100
